In US20080009418A1, “Selective Inhibitors” (Alchemia LTD., priority 2004, published 2008):

Assays:
Human melanocortin (MC5) = molecular target: T1, Human melanocortin (MC5) (Homo sapiens, UniProt P33032); test: Radioligand binding, human melanocortin MC5 membranes, FlashPlate, [125I]-NDP-αMSH; settings: compound at 10 μM, [125I]-NDP-αMSH
T1 construct: purchased Perkin Elmer Biosignal
Description: (§1) Cloned receptor membrane preparations from Perkin Elmer Biosignal™ were used in radioligand binding assays.
(§2) A1 Human δ-opioid (DOP), A2 Human κ-Opioid (KOP), A3 Human Melanocortin (MC3), A4 Human Melanocortin (MC4), A5 Human melanocortin (MC5), A6 Human melanin-concentrating hormone (MCH1), A7 Human μ-opioid (MOP), A8 Human neurokinin (NK1), A9 Human neuropeptide Y (NPY-Y1), A10 Human opioid (ORL1) A11 Mouse urotensin (mUR2)
(§3) Screening experiments were performed in either a 50 μl filtration or 25 μl FlashPlate assay format using the following protocol:
(§4) 19.5 μl buffer, 0.5 μl of compound diluted in DMSO, 5 μl of radioligand diluted in binding buffer.
(§5) The day prior to performing the experiment 50 μl DMSO was added to each well of the compound plates to yield compounds at a final concentration of 10 mM. Daughter plates were then created by diluting the compounds further in DMSO to a concentration of 0.5 mM. The mother plates were frozen immediately.
(§6) Immobilize membranes into FlashPlate microplates using PerkinElmer BioSignal's proprietary coating procedure. Dilute radioligand to 5× the final concentration in binding buffer. Add 19.5 μl buffer to each well of the FlashPlate. Add 0.5 μl of DMSO (total value, 5 wells), reference ligand (non-specific value, 3 wells) or compound to the corresponding wells in the FlashPlate microplate. Initiate the reaction by adding 5 μl of radioligand to each well. Apply TopSeal-A onto FlashPlate microplates. Incubate at room temperature for 1 hour in the dark. Count for 30 seconds per well on TopCount Microplate Scintillation and Luminescence Counter (PerkinElmer) using a count delay of 60 seconds.
(§7) Percentage inhibition was calculated using the following formula: [formula]

Human δ-opioid (DOP) = molecular target: T2, Human δ-opioid (DOP) (Homo sapiens, UniProt P41143); test: Radioligand binding, human δ-opioid (DOP) membranes, FlashPlate, [3H]-Bremazocine; settings: compound at 10 μM, [3H]-Bremazocine
T2 construct: purchased Perkin Elmer Biosignal
Description: as §1, §2, §3, §4, §5, §6, §7

Human μ-opioid (MOP) = molecular target: T3, Human μ-opioid (MOP) (Homo sapiens, UniProt P35372); test: Radioligand binding, human μ-opioid (MOP) membranes, FlashPlate, [3H]-Naloxone; settings: compound at 10 μM, [3H]-Naloxone
T3 construct: purchased Perkin Elmer Biosignal
Description: as §1, §2, §3, §4, §5, §6, §7

Mouse urotensin (mUR2) = molecular target: T4, Mouse urotensin (mUR2) (Mus musculus, UniProt Q8VIH9); test: Radioligand binding, mouse urotensin mUR2 membranes, FlashPlate, [125I]-Urotensin II; settings: compound at 10 μM, [125I]-Urotensin II
T4 construct: purchased Perkin Elmer Biosignal
T4 sequence (Q8VIH9 1-385): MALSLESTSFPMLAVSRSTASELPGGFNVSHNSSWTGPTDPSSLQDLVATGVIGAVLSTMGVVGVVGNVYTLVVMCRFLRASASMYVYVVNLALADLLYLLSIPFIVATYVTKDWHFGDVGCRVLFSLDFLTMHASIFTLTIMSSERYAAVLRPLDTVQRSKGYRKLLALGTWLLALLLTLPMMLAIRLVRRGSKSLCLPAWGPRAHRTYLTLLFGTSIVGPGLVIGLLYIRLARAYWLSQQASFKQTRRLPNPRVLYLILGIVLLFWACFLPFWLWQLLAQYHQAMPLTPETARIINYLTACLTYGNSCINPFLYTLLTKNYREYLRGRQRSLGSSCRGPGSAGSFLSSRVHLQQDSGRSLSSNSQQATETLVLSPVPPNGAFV
Description: as §1, §2, §3, §4, §5, §6, §7

Human κ-Opioid (KOP) = molecular target: T5, Human κ-Opioid (KOP) (Homo sapiens, UniProt P41145); test: Radioligand binding, human κ-opioid (KOP) membranes, filtration, [3H]-Diprenorphine; settings: compound at 10 μM, [3H]-Diprenorphine
T5 construct: purchased Perkin Elmer Biosignal
Description: as §1, §2, §3
(§8) 44 μl membranes diluted in buffer, 1 μl of compound diluted in DMSO, 5 μl of radioligand diluted in binding buffer.
as §5
(§9) Thaw membranes on ice then dilute membranes in binding buffer at a concentration of 1 Unit per well. Dilute radio-ligand to 10 times the final concentration in binding buffer. Add 44 μl of diluted membranes to each well of the deep-well plate. Add 1 μl of DMSO (total value, 5 wells), reference ligand (non-specific value, 3 wells) or compound to the corresponding wells in the deep-well plate. Initiate the reaction by adding 5 μl of radioligand to each well and vortex gently. Incubate at room temperature for 1 hour. During incubation, pre-incubate the Multiscreen Harvest plates in 0.3% PEI. Filter over pre-soaked Multiscreen Harvest plates using a Tomtec Harvester. Wash 9 times with 500 μl of cold 50 mM Tris-HCl pH 7.4 at 4° C. and air-dry for 30 minutes at room temperature under a fume hood. Apply a bottom seal to the Multiscreen Harvest plates. Add 25 μl of MicroScint-0 to each well. Apply TopSeal-A to the plate. Count for 30 seconds per well on TopCount Microplate Scintillation and Luminescence Counter (PerkinElmer) using a count delay of 60 seconds.
as §7

Human opioid (ORL1) = molecular target: T6, Human opioid (ORL1) (Homo sapiens, UniProt P41146); test: Radioligand binding, human opioid ORL1 membranes, FlashPlate, [125I]-Nociceptin; settings: compound at 10 μM, [125I]-Nociceptin
T6 construct: purchased Perkin Elmer Biosignal
Description: as §1, §2, §3, §4, §5, §6, §7

[1] = molecular target: T7, Human neuropeptide Y (NPY-Y1) (Homo sapiens, UniProt P25929); test: Radioligand binding, human neuropeptide Y NPY-Y1 membranes, FlashPlate, [125I]-PYY; settings: compound at 10 μM, [125I]-PYY
T7 construct: purchased Perkin Elmer Biosignal
T7 sequence (P25929 1-384): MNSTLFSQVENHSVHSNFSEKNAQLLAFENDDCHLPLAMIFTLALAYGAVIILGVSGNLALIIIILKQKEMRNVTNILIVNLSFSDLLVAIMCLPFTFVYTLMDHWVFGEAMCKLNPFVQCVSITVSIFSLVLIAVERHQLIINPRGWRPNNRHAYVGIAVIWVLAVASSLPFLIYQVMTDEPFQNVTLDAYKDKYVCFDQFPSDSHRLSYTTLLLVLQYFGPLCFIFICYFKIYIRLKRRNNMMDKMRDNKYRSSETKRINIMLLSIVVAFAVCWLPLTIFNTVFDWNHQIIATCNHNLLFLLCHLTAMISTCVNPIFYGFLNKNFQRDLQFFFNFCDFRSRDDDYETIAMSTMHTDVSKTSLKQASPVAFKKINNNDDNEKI
Description: as §1, §2, §3, §4, §5, §6, §7

Human neurokinin (NK1) = molecular target: T8, Human neurokinin (NK1) (Homo sapiens, UniProt P25103); test: Radioligand binding, human neurokinin NK1 membranes, filtration, [125I]-Substance P; settings: compound at 10 μM, [125I]-Substance P
T8 construct: purchased Perkin Elmer Biosignal
Description: as §1, §2, §3, §8, §5, §9, §7

[2] = molecular target: T9, Human melanin-concentrating hormone (MCH1) (Homo sapiens, UniProt Q99705); test: Radioligand binding, human melanin-concentrating hormone MCH1 membranes, FlashPlate, [125I]-S36057; settings: compound at 10 μM
T9 construct: purchased Perkin Elmer Biosignal
Description: as §1, §2, §3, §4, §5, §6, §7

Human Melanocortin (MC4) = molecular target: T10, Human Melanocortin (MC4) (Homo sapiens, UniProt P32245); test: Radioligand binding, human melanocortin MC4 membranes, FlashPlate, [125I]-NDP-αMSH; settings: compound at 10 μM, [125I]-NDP-αMSH
T10 construct: purchased Perkin Elmer Biosignal
Description: as §1, §2, §3, §4, §5, §6, §7

Human Melanocortin (MC3) = molecular target: T11, Human Melanocortin (MC3) (Homo sapiens, UniProt P41968); test: Radioligand binding, human melanocortin MC3 membranes, FlashPlate, [125I]-NDP-αMSH; settings: compound at 10 μM, [125I]-NDP-αMSH
T11 construct: purchased Perkin Elmer Biosignal
Description: as §1, §2, §3, §4, §5, §6, §7

T8 sequence (P25103 whole entry): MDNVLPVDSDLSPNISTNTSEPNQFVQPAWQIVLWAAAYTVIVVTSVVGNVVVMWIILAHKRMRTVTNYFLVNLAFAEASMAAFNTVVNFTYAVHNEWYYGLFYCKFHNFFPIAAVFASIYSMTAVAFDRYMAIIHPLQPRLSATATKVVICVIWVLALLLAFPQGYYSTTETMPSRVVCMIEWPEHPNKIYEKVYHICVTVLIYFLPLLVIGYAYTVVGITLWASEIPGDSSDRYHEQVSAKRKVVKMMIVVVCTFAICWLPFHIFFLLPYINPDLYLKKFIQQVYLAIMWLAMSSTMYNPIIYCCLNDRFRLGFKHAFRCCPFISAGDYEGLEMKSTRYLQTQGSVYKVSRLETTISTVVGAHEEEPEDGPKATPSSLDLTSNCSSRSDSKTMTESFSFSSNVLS
T5 sequence (P41145 whole entry): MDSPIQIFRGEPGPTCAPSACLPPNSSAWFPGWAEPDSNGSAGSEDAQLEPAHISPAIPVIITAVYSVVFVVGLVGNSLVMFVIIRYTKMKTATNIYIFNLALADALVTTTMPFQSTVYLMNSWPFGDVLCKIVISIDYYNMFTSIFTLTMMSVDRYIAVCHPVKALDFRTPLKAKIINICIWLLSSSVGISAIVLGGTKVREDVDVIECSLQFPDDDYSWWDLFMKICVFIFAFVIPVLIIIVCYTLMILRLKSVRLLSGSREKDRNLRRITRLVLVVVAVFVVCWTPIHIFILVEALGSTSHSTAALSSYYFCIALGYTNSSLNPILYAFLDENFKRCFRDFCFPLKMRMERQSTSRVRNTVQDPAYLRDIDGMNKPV
T10 sequence (P32245 whole entry): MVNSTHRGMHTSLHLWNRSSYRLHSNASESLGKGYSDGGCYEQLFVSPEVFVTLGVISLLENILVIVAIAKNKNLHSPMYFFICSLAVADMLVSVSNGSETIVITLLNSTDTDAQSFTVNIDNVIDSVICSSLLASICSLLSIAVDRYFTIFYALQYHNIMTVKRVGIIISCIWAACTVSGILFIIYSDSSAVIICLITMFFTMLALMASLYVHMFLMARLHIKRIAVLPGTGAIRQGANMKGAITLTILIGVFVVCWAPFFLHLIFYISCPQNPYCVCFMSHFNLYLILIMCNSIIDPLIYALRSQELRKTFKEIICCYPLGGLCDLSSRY
T2 sequence (P41143 whole entry): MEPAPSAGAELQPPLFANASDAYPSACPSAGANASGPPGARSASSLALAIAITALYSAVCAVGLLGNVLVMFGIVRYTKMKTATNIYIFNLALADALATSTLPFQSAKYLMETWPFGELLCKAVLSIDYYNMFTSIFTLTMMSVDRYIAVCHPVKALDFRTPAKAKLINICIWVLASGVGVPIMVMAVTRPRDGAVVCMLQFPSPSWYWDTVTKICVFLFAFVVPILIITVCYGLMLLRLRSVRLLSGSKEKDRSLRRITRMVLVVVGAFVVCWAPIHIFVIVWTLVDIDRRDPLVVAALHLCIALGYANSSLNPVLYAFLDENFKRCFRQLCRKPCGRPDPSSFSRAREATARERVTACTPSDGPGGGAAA
T6 sequence (P41146 whole entry): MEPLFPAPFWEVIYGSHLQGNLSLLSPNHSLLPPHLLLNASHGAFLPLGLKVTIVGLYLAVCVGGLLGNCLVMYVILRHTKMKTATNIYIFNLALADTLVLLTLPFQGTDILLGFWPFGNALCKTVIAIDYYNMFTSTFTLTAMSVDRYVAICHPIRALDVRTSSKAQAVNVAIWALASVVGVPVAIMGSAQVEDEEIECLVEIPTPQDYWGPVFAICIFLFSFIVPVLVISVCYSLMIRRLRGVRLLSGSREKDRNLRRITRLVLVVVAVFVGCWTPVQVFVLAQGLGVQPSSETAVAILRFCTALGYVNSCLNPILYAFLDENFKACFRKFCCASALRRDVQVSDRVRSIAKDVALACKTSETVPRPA
T3 sequence (P35372 whole entry): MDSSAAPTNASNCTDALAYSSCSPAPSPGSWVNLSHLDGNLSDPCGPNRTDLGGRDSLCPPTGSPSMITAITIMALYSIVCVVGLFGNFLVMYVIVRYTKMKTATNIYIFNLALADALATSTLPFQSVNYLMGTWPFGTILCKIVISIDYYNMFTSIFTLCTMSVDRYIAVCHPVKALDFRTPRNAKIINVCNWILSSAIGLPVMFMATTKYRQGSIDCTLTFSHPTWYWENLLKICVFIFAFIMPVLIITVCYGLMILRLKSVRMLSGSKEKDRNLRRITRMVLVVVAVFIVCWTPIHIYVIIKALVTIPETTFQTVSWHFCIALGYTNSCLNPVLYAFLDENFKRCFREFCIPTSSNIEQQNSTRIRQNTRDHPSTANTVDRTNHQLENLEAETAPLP
T1 sequence (P33032 whole entry): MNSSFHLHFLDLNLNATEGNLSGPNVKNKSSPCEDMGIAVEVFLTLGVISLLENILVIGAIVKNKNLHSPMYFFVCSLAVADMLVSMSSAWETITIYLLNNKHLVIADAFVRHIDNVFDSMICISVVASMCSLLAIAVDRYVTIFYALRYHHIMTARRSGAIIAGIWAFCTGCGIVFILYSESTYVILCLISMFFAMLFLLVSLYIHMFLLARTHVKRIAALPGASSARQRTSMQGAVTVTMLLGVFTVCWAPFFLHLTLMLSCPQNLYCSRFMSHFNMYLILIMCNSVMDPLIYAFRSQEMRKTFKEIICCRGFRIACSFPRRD
T9 sequence (Q99705 whole entry): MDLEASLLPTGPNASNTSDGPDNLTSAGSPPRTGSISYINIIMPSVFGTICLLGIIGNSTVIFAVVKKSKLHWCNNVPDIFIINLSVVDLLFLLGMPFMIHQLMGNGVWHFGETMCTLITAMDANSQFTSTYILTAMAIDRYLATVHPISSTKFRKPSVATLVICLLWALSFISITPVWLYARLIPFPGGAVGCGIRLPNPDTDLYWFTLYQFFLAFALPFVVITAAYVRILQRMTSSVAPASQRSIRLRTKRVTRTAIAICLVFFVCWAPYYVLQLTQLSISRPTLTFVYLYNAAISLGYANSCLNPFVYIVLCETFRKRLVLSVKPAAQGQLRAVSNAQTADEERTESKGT
T11 sequence (P41968 whole entry): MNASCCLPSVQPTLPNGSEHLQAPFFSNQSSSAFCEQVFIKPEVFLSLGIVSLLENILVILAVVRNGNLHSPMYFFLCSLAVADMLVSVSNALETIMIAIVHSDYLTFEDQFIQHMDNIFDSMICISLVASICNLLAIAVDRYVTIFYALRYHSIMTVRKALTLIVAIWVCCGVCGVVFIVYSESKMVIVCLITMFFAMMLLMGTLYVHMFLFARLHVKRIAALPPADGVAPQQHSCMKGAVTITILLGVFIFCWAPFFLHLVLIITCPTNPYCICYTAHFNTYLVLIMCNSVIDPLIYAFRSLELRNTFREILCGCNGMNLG

`COCC1OC(OCc2ccc(Cl)cc2)C(NC(=O)CCCNC(=N)N)C(OCc2ccc3ccccc3c2)C1O` (stereo not shown) [compound 213] was tested, and the “A5: inhibition of radioligand binding” value (Human melanocortin (MC5); FlashPlate) was “+ (“+” indicates greater than 50% inhibition at 10 μM)”, the “A1: inhibition of radioligand binding” value (Human δ-opioid (DOP); FlashPlate) was “− (“−” indicates less than 50% inhibition at 10 μM)” and the “A7: inhibition of radioligand binding” value (Human μ-opioid (MOP); FlashPlate) was “− (“−” indicates less than 50% inhibition at 10 μM)”. The “A11: inhibition of radioligand binding” value (Mouse urotensin (mUR2); FlashPlate) was “− (“−” indicates less than 50% inhibition at 10 μM)”, the “A2: inhibition of radioligand binding” value (Human κ-Opioid (KOP); filtration) was “+ (“+” indicates greater than 50% inhibition at 10 μM)” and the “A10: inhibition of radioligand binding” value (Human opioid (ORL1); FlashPlate) was “+ (“+” indicates greater than 50% inhibition at 10 μM)”. For the same compound, the “A9: inhibition of radioligand binding” value ([1]; FlashPlate) was “− (“−” indicates less than 50% inhibition at 10 μM)”, the “A8: inhibition of radioligand binding” value (Human neurokinin (NK1); filtration) was “+ (“+” indicates greater than 50% inhibition at 10 μM)” and the “A6: inhibition of radioligand binding” value ([2]; [125I]-S36057, FlashPlate) was “+ (“+” indicates greater than 50% inhibition at 10 μM)”. For the same compound, the “A4: inhibition of radioligand binding” value (Human Melanocortin (MC4); FlashPlate) was “+ (“+” indicates greater than 50% inhibition at 10 μM)” and the “A3: inhibition of radioligand binding” value (Human Melanocortin (MC3); FlashPlate) was “− (“−” indicates less than 50% inhibition at 10 μM)”.

`CO[C@H]1[C@H](O)[C@@H](COCc2ccc(Cl)cc2)OC(OCc2ccc(Cl)cc2)[C@@H]1NC(=O)CCNC(=N)N` (stereo partly shown) [compound 106] was tested, and the “A5 radioligand binding, percentage inhibition” value (Human melanocortin (MC5)) was “+ (“+” indicates greater than 50% inhibition at 10 μM)”, the “A1 radioligand binding, percentage inhibition” value (Human δ-opioid (DOP)) was “− (“−” indicates less than 50% inhibition at 10 μM)” and the “A7 radioligand binding, percentage inhibition” value (Human μ-opioid (MOP)) was “− (“−” indicates less than 50% inhibition at 10 μM)”. The “A11 radioligand binding, percentage inhibition” value (Mouse urotensin (mUR2)) was “− (“−” indicates less than 50% inhibition at 10 μM)”, the “A2 radioligand binding, percentage inhibition” value (Human κ-Opioid (KOP)) was “− (“−” indicates less than 50% inhibition at 10 μM)” and the “A10 radioligand binding, percentage inhibition” value (Human opioid (ORL1)) was “− (“−” indicates less than 50% inhibition at 10 μM)”. The “A9 radioligand binding, percentage inhibition” value [1] was “− (“−” indicates less than 50% inhibition at 10 μM)”, the “A8 radioligand binding, percentage inhibition” value (Human neurokinin (NK1)) was “+ (“+” indicates greater than 50% inhibition at 10 μM)” and the “A6 radioligand binding, percentage inhibition” value ([2]; [125I]-S36057) was “− (“−” indicates less than 50% inhibition at 10 μM)”. For the same compound, the “A4 radioligand binding, percentage inhibition” value (Human Melanocortin (MC4)) was “+ (“+” indicates greater than 50% inhibition at 10 μM)” and the “A3 radioligand binding, percentage inhibition” value (Human Melanocortin (MC3)) was “+ (“+” indicates greater than 50% inhibition at 10 μM)”.
